Data set [1] is described as follows: Cytotoxicity against human bone marrow mesenchymal stem cells assessed as cell viability up to 100 uM after 48 hrs by WST-1 assay. Format: cell-based. (In general: Tetrazolium assays rely on reduction of a dye to a coloured formazan, in cell work by metabolically active cells.)
Data set [2] deals with Mesenchymal stem cell. The data set can be described thus: Antidiabetic activity against IDX medium-treated human bone marrow mesenchymal stem cells assessed as induction of adiponectin production during adipogenesis at 60 to 100 uM after 6 days by ELISA relative to IDX medium-treated control. The class given is functional. On the technique in general: In an ELISA, binding on a coated surface is turned into a signal by an enzyme label.

Data set [3] concerns Mesenchymal stem cell. The data set can be described thus: (§1) Antidiabetic activity against IDX medium-treated human bone marrow mesenchymal stem cells assessed as induction of adipogenesis at 10 uM after 6 days by oil red o/hematoxylin staining-based inverted-phase microscopic analysis relative to IDX medium-treated control. Format: functional.
The test system of data set [4] is Mesenchymal stem cell. Nature of the data set: Antidiabetic activity against IDX medium-treated human bone marrow mesenchymal stem cells assessed as induction of adiponectin production during adipogenesis after 6 days by ELISA. The class given is functional.
Data set [5] can be described thus: as §1. The class given is functional, Mesenchymal stem cell.
Data set [6] is described as follows: Antidiabetic activity against IDX medium-treated human bone marrow mesenchymal stem cells assessed as induction of adiponectin production during adipogenesis after 6 days by ELISA relative to glibenclamide. The class given is functional, Mesenchymal stem cell.

The structures appear in SMILES notation. Active and inactive are the calls of the source. No cut-off for these calls is given here.

In the case of `CSC(=O)c1c(O)c(C)c(O)c(C)c1C(C)C`, the Activity entry in data set [1] was “Non-toxic”. Further, the result with Mesenchymal stem cell [2] was inactive.

With `COc1c(C)c(O[C@@H]2O[C@@H](C)[C@H](O)[C@@H](O)[C@H]2O)c(C)c(C(C)C)c1C(=O)SC`, the result in the data set on Mesenchymal stem cell [3] was Active.

Turning to `COc1ccc(Cl)cc1C(=O)NCCc1ccc(S(=O)(=O)NC(=O)NC2CCCCC2)cc1`, the Activity entry in the data set on Mesenchymal stem cell [4] is “Dose-dependent effect”.

As for `CSC(=O)c1c(O[C@@H]2O[C@@H](C)[C@H](O)[C@@H](O)[C@H]2O)c(C)c(O)c(C)c1C(C)C`, the Activity in data set [5] was 107%; in data set [1], “Non-toxic”; in the data set with Mesenchymal stem cell [4], “Dose-dependent effect”. In addition, in data set [6], the “%max” value was found to be 44%.

As to `CSC(=O)c1c(O[C@@H]2O[C@@H](C)[C@H](O)[C@@H](O)[C@H]2O)c(C)c(O[C@@H]2O[C@@H](C)[C@H](O)[C@@H](O)[C@H]2O)c(C)c1C(C)C`, the Activity in data set [5] is 75%; in data set [1], “Non-toxic”; with Mesenchymal stem cell [4], “Dose-dependent effect”. Also, the “%max” value in data set [6] came out at 38%.

Consider `COc1c(C)c(O[C@@H]2O[C@@H](C)[C@H](O)[C@@H](O)[C@H]2O)c(C(=O)SC)c(C(C)C)c1C`, for which the Activity in data set [5] was 65%; in data set [1], “Non-toxic”; with Mesenchymal stem cell [4], “Dose-dependent effect”. Further, the “%max” value in data set [6] came to 47%.

For the origin of these results see ChEMBL document CHEMBL3585324, “Suncheonosides A-D, Benzothioate Glycosides from a Marine-Derived Streptomyces sp” (J Nat Prod, 2015).
